According to the supplement of paper PMC11061612:

What was measured:
[1] = system: ASH-3 (Thyroid Gland Carcinoma); experiment: Bliss excess, mean over the matrix (fraction); higher = more synergy
Method in brief: (§1)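 Cell lines in DMEM/F12 or RPMI with 10% FBS were plated in 1536-well plates, held 24 hours at 37°C, 5% CO2, then given two-drug dose matrices for 72 hours (DMSO typically 0.2%). Viability was read by CellTiter-Glo 2.0 luminescence and scaled as inhibition from 0 (vehicle wells) to 1 (blank wells). Combination Emax is the second-highest inhibition in the matrix; Bliss excess is observed combination effect minus expected EA + EB − EA·EB, EA and EB being single-agent effects.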

[2] = system: KLE (Endometrial Carcinoma); experiment: as above
Method in brief: as §1

[3] = system: SCC-3 (B-Cell Non-Hodgkin's Lymphoma); experiment: as above
Method in brief: as §1

[4] = system: NCI-H2347 (Lung Adenocarcinoma); experiment: as above
Method in brief: as §1

[5] = system: KP-2 (Pancreatic Carcinoma); experiment: as above
Method in brief: as §1

[6] = system: JHH-7 (Hepatocellular Carcinoma); experiment: as above
Method in brief: as §1

[7] = system: HSC-2 (Oral Cavity Carcinoma); experiment: as above
Method in brief: as §1

[8] = system: KINGS-1 (Low Grade Glioma); experiment: combination Emax (second highest fraction inhibited in the dose matrix, 72 h); higher = more inhibition; extreme values may be limits of the assay
Method in brief: as §1

[9] = system: RPMI-7951 (Melanoma); experiment: as above
Method in brief: as §1

[10] = system: A704 (Kidney Carcinoma); experiment: as above
Method in brief: as §1

[11] = system: LOU-NH91 (Squamous Cell Lung Carcinoma); experiment: as above
Method in brief: as §1

[12] = system: EMC-BAC-2 (Non-Small Cell Lung Carcinoma); experiment: as above
Method in brief: as §1

[13] = system: KYSE-50 (Esophageal Squamous Cell Carcinoma); experiment: as above
Method in brief: as §1

[14] = system: KYSE-150 (Esophageal Squamous Cell Carcinoma); experiment: as above
Method in brief: as §1

[15] = system: MFE-319 (Endometrial Carcinoma); experiment: as above
Method in brief: as §1

[16] = system: NCI-N87 (Gastric Carcinoma); experiment: as above
Method in brief: as §1

[17] = system: EW-3 (Ewing's Sarcoma); experiment: as above
Method in brief: as §1

[18] = system: LC4-1 (B-Lymphoblastic Leukemia); experiment: as above
Method in brief: as §1

[19] = system: IMR-5 (Neuroblastoma); experiment: as above
Method in brief: as §1

[20] = system: HSC-2 (Oral Cavity Carcinoma); experiment: as above
Method in brief: as §1
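Wherever Bliss excess, mean over the matrix is given: after 72 h of two-drug dosing.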

| Compound | Bliss excess [1] | Bliss excess [2] | Bliss excess [3] | Bliss excess [4] | Bliss excess [5] | Bliss excess [6] | Bliss excess [7] | combination Emax [8] | combination Emax [9] | combination Emax [10] | combination Emax [11] | combination Emax [12] | combination Emax [13] | combination Emax [14] | combination Emax [15] | combination Emax [16] | combination Emax [17] | combination Emax [18] | combination Emax [19] | combination Emax [20] |
| --- | --- | --- | --- | --- | --- | --- | --- | --- | --- | --- | --- | --- | --- | --- | --- | --- | --- | --- | --- | --- |
| Cc1c2c(nn1C)CSCc1cc(n(C)n1)CSc1cc(c3ccccc3c1)OCCCc1c(C(=O)O)n(C)c3c-2c(Cl)ccc13 [AZD5991] + CCN(CCO)CCCOc1ccc2c(Nc3cc(CC(=O)Nc4cccc(F)c4)[nH]n3)ncnc2c1 [AZD2811] (first compound max 1 µM, 7x7, partner max 1 µM) | -0.014 | -0.0923 | 0.0604 | 0.0102 | 0.0395 | 0.0144 | 0.0322 | 0.242 | 0.974 | 0.177 | 0.612 | 0.823 | 0.556 | 0.498 | 0.603 | 0.395 | 0.771 | 0.993 | 1 | 0.968 |
| C=CCn1c(=O)c2cnc(Nc3ccc(N4CCN(C)CC4)cc3)nc2n1-c1cccc(C(C)(C)O)n1 [AZD1775] + C[C@@H]1COCCN1C2=NC(=NC(=C2)C3(CC3)[S@](=N)(=O)C)C4=C5C=CNC5=NC=C4 [AZD6738] (first compound max 1 µM, partner max 10 µM) | 0.0987 | -0.0361 | 0.0428 | 0.0438 | 0.0329 | 0.0273 | 0.0675 | 0.533 | 0.951 | 0.57 | 0.54 | 0.571 | 0.694 | 0.756 | 0.825 | 0.806 | 0.804 | 0.952 | 0.986 | 0.832 |
| CN(C)CCCOc1ccc(-c2ccc3ncc4c(c3c2)n(C2CCOCC2)c(=O)n4C)cn1 [AZD0156] + O=C(c1cc(Cc2n[nH]c(=O)c3ccccc23)ccc1F)N1CCN(C(=O)C2CC2)CC1 [Olaparib] (first compound max 3 µM, partner max 3 µM) | -0.0311 | -0.0506 | 0.28 | -0.0089 | -0.0072 | 0.117 | 0.156 | 0.176 | 0.264 | 0.247 | 0.209 | 0.486 | 0.195 | 0.295 | 0.193 | 0.327 | 0.708 | 0.673 | 0.544 | 0.386 |
| CN(C)CCCOc1ccc(-c2ccc3ncc4c(c3c2)n(C2CCOCC2)c(=O)n4C)cn1 [AZD0156] + C=CCn1c(=O)c2cnc(Nc3ccc(N4CCN(C)CC4)cc3)nc2n1-c1cccc(C(C)(C)O)n1 [AZD1775] (first compound max 1 µM, partner max 1 µM) | 0.0012 | 0.0559 | -0.0162 | -0.0627 | -0.0331 | -0.0412 | -0.0507 | 0.293 | 0.687 | 0.379 | 0.371 | 0.304 | 0.27 | 0.448 | 0.63 | 0.726 | 0.357 | 0.916 | 0.741 | 0.54 |
| CN(CCO)CC[C@H](CSc1ccccc1)Nc1ccc(S(=O)(=O)NC(=O)c2ccc(N3CCC([C@@H](O)c4ccccc4-c4ccc(Cl)cc4)CC3)cc2)cc1S(=O)(=O)C(F)(F)F [AZD4320] + CCN(CCO)CCCOc1ccc2c(Nc3cc(CC(=O)Nc4cccc(F)c4)[nH]n3)ncnc2c1 [AZD2811] (first compound max 1 µM, 7x7, partner max 1 µM) | 0.0577 | -0.0207 | -0.0063 | -0.0472 | 0.0653 | -0.0085 | 0.166 | 0.498 | 0.647 | 0.563 | 0.877 | 0.417 | 0.382 | 0.301 | 0.647 | 0.571 | 0.949 | 1 | 1 | 0.827 |
| CC1(C)CCC(CN2CCN(c3ccc(C(=O)NS(=O)(=O)c4ccc(NCC5CCOCC5)c([N+](=O)[O-])c4)c(Oc4cnc5[nH]ccc5c4)c3)CC2)=C(c2ccc(Cl)cc2)C1 [Venetoclax] + C1CN(CCC1(C(=O)N[C@@H](CCO)C2=CC=C(C=C2)Cl)N)C3=NC=NC4=C3C=CN4 [Capivasertib] (first compound max 1 µM, 7x7, partner max 3 µM) | -0.0554 | -0.106 | -0.0335 | -0.0627 | -0.0586 | -0.0266 | -0.0823 | 0.329 | 0.472 | 0.318 | 0.36 | 0.35 | 0.17 | 0.405 | 0.321 | 0.521 | 0.683 | 1 | 0.19 | 0.364 |
| COc1nnc2ccc(N3CCC(c4ccc(OCCN5CCN(C)C(=O)[C@H]5C)cc4)CC3)nn12 [AZD5153] + Cc1c2c(nn1C)CSCc1cc(n(C)n1)CSc1cc(c3ccccc3c1)OCCCc1c(C(=O)O)n(C)c3c-2c(Cl)ccc13 [AZD5991] (first compound max 1 µM, 7x7, partner max 1 µM) | -0.114 | -0.0228 | 0.029 | -0.0198 | 0.0098 | -0.0306 | -0.0731 | 0.186 | 0.825 | 0.545 | 0.705 | 0.886 | 0.713 | 0.582 | 0.985 | 0.551 | 0.908 | 1 | 1 | 0.963 |
| CN(CCO)CC[C@H](CSc1ccccc1)Nc1ccc(S(=O)(=O)NC(=O)c2ccc(N3CCC([C@@H](O)c4ccccc4-c4ccc(Cl)cc4)CC3)cc2)cc1S(=O)(=O)C(F)(F)F [AZD4320] + C[C@@H](Nc1cc(F)cc(F)c1)c1cc(C(=O)N(C)C)cc2c(=O)cc(N3CCOCC3)oc12 [AZD8186] (first compound max 1 µM, 7x7, partner max 3 µM) | -0.051 | 0.0304 | 0.0118 | 0.126 | 0.0419 | 0.0257 | -0.0401 | 0.629 | 0.701 | 0.57 | 0.768 | 0.383 | 0.283 | 0.298 | 0.427 | 0.638 | 0.898 | 1 | 1 | 0.897 |
| Cn1cnc2c(F)c(Nc3ccc(Br)cc3Cl)c(C(=O)NOCCO)cc21 [Selumetinib] + C=CCn1c(=O)c2cnc(Nc3ccc(N4CCN(C)CC4)cc3)nc2n1-c1cccc(C(C)(C)O)n1 [AZD1775] (first compound max 10 µM, partner max 1 µM) | -0.0192 | -0.0117 | 0.0092 | -0.0164 | 0.0088 | -0.0198 | -0.0366 | 0.361 | 0.741 | 0.488 | 0.423 | 0.412 | 0.605 | 0.453 | 0.671 | 0.712 | 0.269 | 0.874 | 0.894 | 0.372 |
| COc1nnc2ccc(N3CCC(c4ccc(OCCN5CCN(C)C(=O)[C@H]5C)cc4)CC3)nn12 [AZD5153] + C[C@@H]1COCCN1C2=NC(=NC(=C2)C3(CC3)[S@](=N)(=O)C)C4=C5C=CNC5=NC=C4 [AZD6738] (first compound max 1 µM, 7x7, partner max 10 µM) | -0.025 | -0.0287 | -0.0195 | 0.0599 | 0.0565 | 0.04 | -0.0039 | 0.281 | 0.925 | 0.681 | 0.871 | 0.816 | 0.804 | 0.746 | 0.785 | 0.766 | 0.851 | 0.975 | 1 | 0.79 |
| COc1cccc(OCCCN)c1-c1cc(Nc2cnc(C#N)cn2)n[nH]1 [Prexasertib] + C=CCn1c(=O)c2cnc(Nc3ccc(N4CCN(C)CC4)cc3)nc2n1-c1cccc(C(C)(C)O)n1 [AZD1775] (first compound max 1 µM, partner max 1 µM) | 0.235 | 0.112 | 0.051 | -0.0548 | 0.112 | 0.107 | 0.178 | 0.638 | 0.991 | 0.517 | 0.716 | 0.608 | 0.852 | 0.866 | 0.807 | 0.797 | 0.732 | 0.983 | 1 | 0.882 |
| CC(=O)c1c(C)c2cnc(Nc3ccc(N4CCNCC4)cn3)nc2n(C2CCCC2)c1=O [Palbociclib] + CC1(C)CCC(CN2CCN(c3ccc(C(=O)NS(=O)(=O)c4ccc(NCC5CCOCC5)c([N+](=O)[O-])c4)c(Oc4cnc5[nH]ccc5c4)c3)CC2)=C(c2ccc(Cl)cc2)C1 [Venetoclax] (first compound max 10 µM, 7x7, partner max 1 µM) | -0.0086 | -0.0355 | 0.0411 | -0.0375 | -0.0425 | -0.0474 | -0.0128 | 0.206 | 0.431 | 0.625 | 0.145 | 0.243 | 0.233 | 0.455 | 0.172 | 0.417 | 0.599 | 1 | 0.7 | 0.245 |
| Cc1cc2ncnn2cc1Nc1ncc2c(n1)n(C1CCOCC1)c(=O)n2C [AZD7648] + CN(C)CCCOc1ccc(-c2ccc3ncc4c(c3c2)n(C2CCOCC2)c(=O)n4C)cn1 [AZD0156] (first compound max 10 µM, 7x7, partner max 1 µM) | 0.0116 | 0.0175 | 0.0458 | 0.0159 | -0.0182 | -0.0152 | 0.0203 | 0.3 | 0.396 | 0.215 | 0.279 | 0.311 | 0.164 | 0.532 | 0.311 | 0.477 | 0.386 | 0.42 | 0.239 | 0.398 |
